Reference: patent US5166379A, “Synthesis of compounds with biological activity, and methods of use” (Harbor Branch Oceanographic Institution, Inc., priority 1990, dated 1992)
≈ marks a conversion by molar mass, not a printed value. Read-outs that look alike come from different tables or passages of the source.

Columns and labels:
P388 cells = test: Antiproliferative effects against P388 cells (antitumor, MTT); type: cell-based
Experimental: IV. Antitumor Methodology
To assess the antiproliferative effects against P388 cells, 200 μl cultures (96-well tissue culture plates, Nunc, Denmark) were established at 1×10^5 cells/ml in drug-free medium or medium containing the pure compounds/crude extracts at a final dilution or 1:500 and at various concentrations. Solvent for all dilutions was methanol, which was removed from plates under vacuum. All experimental cultures were initiated in media containing Gentamicin sulfate (50 μg/ml; Schering Corporation, Kenilworth, NJ).
To quantitate the effects of pure compounds/crude extracts on cell proliferation, 75 μl of warm growth medium containing 5 mg/ml MTT was added to each well, cultures were returned to the incubator, and were left undisturbed for 90 minutes. To spectrophotometrically quantitate formation of reduced formazan, plates were centrifuged (900×g, 5 minutes), culture fluids removed by aspiration, and 200 μl of acidified isopropanol (2 ml concentrated HCl/liter isopropanol) added per well. The absorbance of the resulting solutions were measured at 570 nm with a plate reader (MR700 Microplate Reader, Dynatech Laboratories, Chantilly, VA).

[1] = tested on: lymphoid cells (murine BALB/c splenocytes); test: Lymphocyte Viability Assay (LCV); type: cell-based
Experimental: (§1) II. Lymphocyte Viability Assay
(§2) 1. Compounds were similarly tested in parallel with the MLR to determine their toxic effects on lymphoid cells using the lymphocyte viability assay (LCV).
(§3) 2. Serial, log10 dilutions of the pure compound were made in absolute ethanol, and 10 μl of each dilution was added to wells of microtiter test plates, and allowed to dry.
(§4) 3. Murine splenocyte suspensions were prepared from BALB/c mice. […] The cell concentrations were adjusted to 2.5×10^6 cells/ml.
(§5) 4. A volume of 0.2 ml of the splenocyte suspension was added to replicate test wells. Positive control wells received splenocyte suspensions in the absence of the test compounds.
(§6) 5. Plates were incubated at 37° C. for 86 hours. At the end of the incubation period, a volume of 75 μl of a 2.0 mg/ml solution of MTT was added to each well, and the plates were returned to the incubator for an additional 5 hours.
(§7) 6. The supernatants from each microwell were then removed, and a volume of 200 μl of isopropanol was added and the contents mixed.
(§8) 7. Values were obtained by comparing the optical densities (determined at 570 and 650 nm) of wells containing the test compounds with those of wells containing cells and medium only (positive control). The results are expressed as a percentage of the positive control.
(§9) 8. Replicate counts were averaged, and the data reported as a percentage of the positive control. An LCV value of less than 60% of the positive control is an indication of cytotoxicity of the test compounds for lymphoid cells.

[2] = tested on: murine splenocyte suspensions (BALB/c and C57BL/6J mice); test: Mixed Lymphocyte Reaction (MLR); type: cell-based
Experimental: I. Mixed Lymphocyte Reaction
1. Murine splenocyte suspensions were prepared separately from BALB/c and C57BL/6J mice. […] The cell concentrations were adjusted to 2.5×10^6 cells/ml. Aliquots of each cell population were removed to separate tubes, and the remaining two cell suspensions combined to one tube.
as §3
3. A volume of 0.2 ml of the combined splenocyte suspensions was added to triplicate test wells. Positive control wells received combined splenocyte suspensions in the absence of the test compounds. Negative control wells consisted of separate (not mixed) splenocyte suspensions cultured in the absence of the test compounds.
4. Plates were incubated in 5% CO2 at 37° C. for 86 hours.
5. A volume of 0.05 ml of ^3 H-thymidine (20 μCi/ml) was added to each well, and the plates were incubated in 5% CO2 at 37° C. for an additional 5 hours.
6. The contents of each well of the microtiter plates were harvested onto glass fiber filter strips, and the resulting filter discs placed in scintillation vials to which 2.0 ml of scintillation fluid was added.
7. The amount of incorporated ^3 H-thymidine was determined by counting the vials in a liquid scintillation counter.
8. Triplicate counts were averaged, and the data reported as a percentage of the positive control.

[3] = tested on: graft vs host reaction in CB6F1 mice grafted with BALB/c splenocytes; test: Graft vs. Host (GVHR) in vivo activity; conditions: for % Suppression / Stim. Index (spleen index): i.p.
Experimental: III. Graft vs. Host (GVHR) In Vivo Activity
1. Donor mice (BALB/c) were sacrificed, spleens removed, and spleen cell suspensions prepared in tissue culture medium.
2. The above splenocyte suspension was adjusted to 10.0×10^7 cells/ml.
3. Mice were treated with varying dosages of the test compound. […] Treatment consisted of intraperitoneal injections, daily for 7 days. Dosages were calculated on a mg per kg body weight basis.
4. On day 1 of the first treatment regimen, recipient mice (CB6) were injected intraperitoneally with 0.50 ml (50.0×10^6) of the donor (BALB/c) splenocyte suspension.
5. Controls consisted of the following:
POS--mice receiving BALB/c splenocytes (Positive Control)
SYN--mice receiving CB6 splenocytes (Syngeneic Control)
CYP--mice receiving Cyclophosphamide (100 mg/kg) and BALB/c splenocytes
6. At the end of five days, recipient mice were sacrificed, weighed, and spleens removed and weighed.
7. A spleen index of 1.0 was assigned to the mean spleen weights (adjusted to body weight) of the SYN controls. The spleen index of treated mice was determined by comparing the spleen weights of those mice with that of the […]. […] As a general rule, a spleen index of less than the positive control is indicative of an immunosuppressive (ID) compound.
^a CB6F1 mice (5 mice per group) were grafted with 5 ×
10^7 BALB/c spelnocytes, i.p. on Day 0. Groups were injected, ii.p.,
with drug (or vehicle) on Days 1-6. Positive designates grafted mice
receiving vehicle alone.
^b Number of surviving mice at end of experiment.
(Stimulation Index of Syngeneic group (CB6F1 ->CB6F1) = 100

[4] = Lymphocyte Viability Assay (LCV); type: cell-based, murine; conditions: mouse, splenocytes, read-out: % LCV (percentage of positive control)
Experimental: as §1, §2, §3, §4, §5, §6, §7, §8, §9

C#CC(O)C=CCCCCCCCCCCCCCCCCCCC (centres unmarked) [CH3 (CH2)18 CH=CH--CHOH--C≡CH]
P388 IC50 (P388 cells; 48 hour exposure): 219 µg/mL
% LCV (percentage of positive control) ([1]; 0.05 μg/ml): 58%
% LCV (percentage of positive control) ([1]; 0.2 μg/ml): 70%
% LCV (percentage of positive control) ([1]; 0.8 μg/ml): 61%
% LCV (percentage of positive control) ([1]; 3.1 μg/ml): 28%
% LCV (percentage of positive control) ([1]; 12.5 μg/ml): 30%
% LCV (percentage of positive control) ([1]; 50 μg/ml): 39%
% MLR (percentage of positive control) ([2]; 0.05 μg/ml): 103%
% MLR (percentage of positive control) ([2]; 0.2 μg/ml): 103%
% MLR (percentage of positive control) ([2]; 0.8 μg/ml): 0%
% MLR (percentage of positive control) ([2]; 3.1 μg/ml): 0%
% MLR (percentage of positive control) ([2]; 12.5 μg/ml): 0%
% MLR (percentage of positive control) ([2]; 50 μg/ml): 0%

C#CC(O)/C=C/CCCCCCCCCCCCCCC (centres unmarked) [CH3 (CH2)14 CH=CH--CHOH--C≡CH]
IC50 (P388 cells; Mus musculus, P388, 48 hour exposure): 9.4 µg/mL (≈ 32.1 µM)
% Suppression ([3]; 25.0 mg/kg): 45%
Stim. Index (spleen index) ([3]; 25.0 mg/kg): 1.63 ± .25
% Suppression ([3]; 50.0 mg/kg): 25%
Stim. Index (spleen index) ([3]; 50.0 mg/kg): 1.86 ± .18
% Suppression ([3]; 100 mg/kg): 0%
Stim. Index (spleen index) ([3]; 100 mg/kg): 2.35 ± .15
% Suppression ([3]; 150.0 mg/kg): 81%
Stim. Index (spleen index) ([3]; 150.0 mg/kg): 1.22 ± .03
suppression of the GVHR (splenomegaly response), in words ([3]; mouse, in vivo): could mediate the suppression of the GVHR
viability ([4]; 0.05 μg/ml): 63%
viability ([4]; 0.2 μg/ml): 42%
viability ([4]; 0.8 μg/ml): 20%
viability ([4]; 3.1 μg/ml): 19%
viability ([4]; 12.5 μg/ml): 19%
viability ([4]; 50 μg/ml): 11%
activity at 0.05 µg/mL ([2]; Mus musculus, Splenocyte, 0.05 μg/ml, read-out: % MLR (percentage of positive control)): 0%
activity at 0.2 µg/mL ([2]; Mus musculus, Splenocyte, 0.2 μg/ml, read-out: % MLR (percentage of positive control)): 0%
activity at 0.8 µg/mL ([2]; Mus musculus, Splenocyte, 0.8 μg/ml, read-out: % MLR (percentage of positive control)): 0%
activity at 3.1 µg/mL ([2]; Mus musculus, Splenocyte, 3.1 μg/ml, read-out: % MLR (percentage of positive control)): 0%
activity at 12.5 µg/mL ([2]; Mus musculus, Splenocyte, 12.5 μg/ml, read-out: % MLR (percentage of positive control)): 0%
activity at 50 µg/mL ([2]; Mus musculus, Splenocyte, 50 μg/ml, read-out: % MLR (percentage of positive control)): 0%
